From patent US9174996B2, “Protein kinase inhibitors” (Astar Biotech LLC, priority 2012, dated 2015) come the findings set out here.

One series concerns KU812. The series can be described thus: MTT cell viability assay, Experiment 3. Format: cell-based. Conditions: Homo sapiens. The source says: (§1) This study evaluated the effect of the pure optical isomers on human leukemia cell viability in vitro. Ponatinib was used as the positive control. Two BCR-ABL-positive human leukemia cell lines, K562 and KU812, were used in this study. Besides, Ba/F3 cell transfectants expressing native or T315I BCR-ABL, whose viability is dependent on ectopically expressed BCR-ABL, were also used in this work. Ba/F3 cells expressing BCR-ABL^T315I were used for testing the efficiency of tested compounds on point mutation BCR-ABL^T315I, which cause drug resistance to Imatinib (Gleevec). U937 and JURKAT, two BCR-ABL-negative human leukemia cell lines, were employed to test the selectivity of tested compounds.
(§2) Cells were seeded in 24-well plates, and treated with drugs at corresponding concentrations. Cell viability was measured using a MTT (3-(4,5-dimethylthiazol-2-yl)-2,5-diphenyltetrazolium bromide)-based colorimetric assay with a 96-well plate reader. IC50 values were calculated using the mean of two independent experiments.
(Tetrazolium dyes change colour on reduction, which living cells bring about.)

Another series relates to K562. The series can be described thus: MTT cell viability assay, Experiment 3. Format: cell-based. Conditions: Homo sapiens.
Description: as §1, §2

The next series has as its system JURKAT. The series can be described thus: MTT cell viability assay, Experiment 3. Format: cell-based. Conditions: Homo sapiens, read-out: IC50 cell viability, Non-CML leukemia cells JURKAT.
Description: as §1, §2

The next series deals with U937. The series can be described thus: MTT cell viability assay, Experiment 3. Format: cell-based. Conditions: Homo sapiens.
Description: as §1, §2

For series [1], the target named is Ba/F3 cells expressing BCR-ABL T315I (Homo sapiens, UniProt P00519, T315I, cells depend on it). The series is described as follows: MTT cell viability assay, Experiment 3. Format: cell-based, murine. Conditions: Mean ± S.E.M, two independent experiments, read-out: IC50 cell viability, Ba/F3 cells T315I BCR-ABL.
Description: as §1, with “Ponatinib was used as the positive control.” left out
as §2

The target of series [2] is Ba/F3 cells expressing native BCR-ABL (Homo sapiens, UniProt P00519). The series can be described thus: MTT cell viability assay, Experiment 3. Format: cell-based, murine. The note with it: Mean ± S.E.M, two independent experiments, read-out: IC50 cell viability, Ba/F3 cells Native BCR-ABL.
Description: as §1, with “Ponatinib was used as the positive control.” left out
as §2

Series [3] relates to Ba/F3 harboring the T315I mutant isoform of BCR-ABL. The series is described as follows: BaF3/BCR-ABL T315I mouse xenograft model, Experiment 4. Format: in vivo. Conditions: oral, 14 days, NOD SCID mice. As to the method: The murine pro-B cell line Ba/F3 harboring the T315I mutant isoform of BCR-ABL was subcutaneously injected into NOD SCID mice (NOD.CB17-Prkdc^scid/J). […] The tumor volumes in two dimensions and the body weights of the mice were measured three times a week (volume=L×W^2×0.5).

In series [4] the test system is K562 cells. The series is described as follows: Cell death assay, Experiment 1 (live cells counted by trypan blue). Format: cell-based. The note with it: Homo sapiens, 100 nM, 48 hours, read-out: % live cells (vs control).
Series [5] has as its system K562 cells. The series can be described thus: Cell death assay, Experiment 2 (IC50, live cells counted by trypan blue). Format: cell-based. Conditions: Homo sapiens, 48 h. As for the experimental part:
K562 cells (2×10^5 cells/ml) were seeded in 24-well cell culture plate and treated with DMSO or agents. After treatment in the presence of DMSO or agents for 48 h, cells were collected by centrifuging at 500 g for 5 minutes, and then cells were resuspended in appropriate volume of PBS. 10 uL of cell suspension was mixed with 10 uL of trypan blue solution and live cells were counted by TC10 (Bio-Rad, Richmond, Calif.).

The mark [6] stands for this setting: KU812, MTT, Mean ± S.E.M, two independent experiments, read-out: IC50 cell viability, CML leukemia cells KU812.
The mark [7] stands for this setting: K562, MTT, Mean ± S.E.M, two independent experiments, read-out: IC50 cell viability, CML leukemia cells K562.
Setting [8] is: MTT, Mean ± S.E.M, two independent experiments.
Setting [9] is: U-937, MTT, Mean ± S.E.M, two independent experiments, read-out: IC50 cell viability, Non-CML leukemia cells U937.

Each structure is given as a SMILES string. Where two headings read alike, the source gives them in different places. Some results are limits rather than exact numbers.

Turning to `Cc1ccc(C(=O)Nc2ccc3c(c2)C(F)(F)C[C@@H]3N2CCN(C)CC2)cc1C#Cc1cnc2cccnn12` [Compound 36-(S), (S)-N-(1,1-difluoro-2,3-dihydro-3-(4-methylpiperazin-1-yl)-1H-indan-6-yl)-3-(2-(imidazo[1,2-b]pyridazin-3-yl)ethynyl)-4-methylbenzamide], the IC50 (in general, the concentration needed to halve the response being measured) was 0.1 ± 0.1 nM in the series on KU812 (setting [6]), 0.4 ± 0.1 nM in the series on K562 (setting [7]), 851 ± 25.7 nM with JURKAT (setting [8]) and 868 ± 88.7 nM in the series with U937 (setting [9]). Besides, the figures for the GI50 in [1] and in series [2] were 4.7 ± 1.3 nM and 2.1 ± 0.2 nM, respectively. The “TGI (Tumor growth inhibition)” value was found to be 105% in [3] (10 mg/kg/day) and 108% in series [3] (20 mg/kg/day).
As to `Cc1ccc(C(=O)Nc2ccc3c(c2)C(F)(F)CC3N2CCN(C)CC2)cc1C#Cc1cnc2cccnn12` (racemic) [Compound 36, N-(1,1-difluoro-2,3-dihydro-3-(4-methylpiperazin-1-yl)-1H-indan-6-yl)-3-(2-(imidazo[1,2-b]pyridazin-3-yl)ethynyl)-4-methylbenzamide], the IC50 in the series on KU812 (setting [6]) was determined as 0.2 ± 0.1 nM; in the series with K562 (setting [7]) it was 0.5 ± 0.1 nM; with JURKAT (setting [8]), 672 ± 77.6 nM; with U937 (setting [9]) it was 608 ± 42.2 nM; in the series with K562 cells [5], 0.87 nM. The viability at 0.1 µM in the series on K562 cells [4] amounted to 9.48%. In addition, the GI50 in series [1] worked out at 11 ± 0.2 nM; in series [2], 2.7 ± 0.2 nM.
For the compound `CN1CCN([C@H]2CC(F)(F)c3cc(NC(=O)c4ccc(Cl)c(C#Cc5cnc6cccnn56)c4)ccc32)CC1` (single isomer, unassigned) [Compound 38-(S)], the IC50 was 0.2 ± 0.1 nM in the series on KU812 (setting [6]), 0.6 ± 0.1 nM in the series with K562 (setting [7]), greater than 1000 nM with JURKAT (setting [8]) and greater than 1000 nM with U937 (setting [9]). Besides, the GI50 in [1] is 3.8 ± 0.2 nM; in series [2] it was 2.2 ± 0.3 nM. Moreover, in series [3] (5 mg/kg/day), the “TGI (Tumor growth inhibition)” value came out at 81%.
Take `Cc1ccc(C(=O)Nc2ccc(CN3CCN(C)CC3)c(C(F)(F)F)c2)cc1C#Cc1cnc2cccnn12` [Ponatinib, reference compound]: the 50% inhibitory concentration (IC50) was 0.1 ± 0.1 nM in the series on KU812 (KU812, read-out: IC50 cell viability, CML leukemia cells KU812); 0.3 ± 0.1 nM with K562 (K562, read-out: IC50 cell viability, CML leukemia cells K562); 295 ± 5 nM in the series on JURKAT; 246 ± 12.5 nM in the series on U937 (U-937, read-out: IC50 cell viability, Non-CML leukemia cells U937). Also, the results for the “TGI (Tumor growth inhibition)” value in series [3] (10 mg/kg/day) and in [3] (20 mg/kg/day) were 75% and 94%, respectively.
On to `Cc1ccc(C(=O)Nc2ccc3c(c2)C(F)(F)CC3N2CCN(C)CC2)cc1C#Cc1cnc(NC2CC2)nc1` (racemic) [Compound 37, 3-(2-(2-(Cyclopropylamino)pyrimidin-5-yl)ethynyl)-N-(1,1-difluoro-2,3-dihydro-3-(4-methylpiperazin-1-yl)-1H-indan-6-yl)-4-methylbenzamide], for which the melting point – broadly, the temperature, or range, at which the solid turns liquid – is 95 to 97 °C. The half-inhibitory concentration (IC50) in the series with KU812 (setting [6]) amounted to 0.4 ± 0.1 nM. Further, in the series on K562 (setting [7]), the half-maximal inhibitory concentration (IC50) was found to be 1 ± 0.2 nM. Further, in the series with JURKAT (setting [8]), the IC50 was determined as 292 ± 8 nM. For the same compound, in the series with U937 (setting [9]), the IC50 came out at 191 ± 3.3 nM. Besides, in the series on K562 cells [4], the viability at 0.1 µM was determined as 4.32%. The GI50 in [1] is 40 ± 9.6 nM. The GI50 in series [2] was 9.3 ± 2.5 nM. In the series with K562 cells [5], this compound gave an IC50 of 3.4 nM.
